This note sets out measurements from PubChem BioAssay (NCI).

“And” between values parts separate entries of the source, which are not always exact repeats. Equal values may be shown once.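 96-well plates; 48 h exposure; 5 concentrations. Endpoints by linear interpolation between flanking doses. Not reached: highest tested concentration assigned. The concentration for 50% growth inhibition is given as GI50. Definition used: TGI = concentration required for complete inhibition of growth.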

Test systems include MCF7 breast; UO-31 renal; T-47D breast; KM12 colon; CAKI-1 renal; HOP-62 NSCLC; COLO 205 colon; BT-549 breast; SK-OV-3 ovarian; MOLT-4 leukemia.
Assay in all cases: DTP human tumour cell line panel, 48 h

For orientation: GI50 means the concentration at which growth is held to half of that of the control. As usually defined, the TGI is the concentration at which net growth stops. As for `O=C(Cn1ccnc1[N+](=O)[O-])N(CCO)CCO`, the GI50 in the assay with MCF7 breast is above 250 µM; in the assay with UO-31 renal it was above 1250 µM; in the assay on KM12 colon it was above 1250 µM; in the assay on CAKI-1 renal, above 1250 µM; with HOP-62 NSCLC, 22.3 µM; with COLO 205 colon, above 250 µM. Further, the GI50 in the assay with SK-OV-3 ovarian was above 58 µM; in the assay on MOLT-4 leukemia, above 1250 µM. Moreover, the TGI is above 1250 µM with MCF7 breast; above 1250 µM with UO-31 renal; above 250 µM in the assay on T-47D breast; above 1250 µM in the assay on KM12 colon; above 1250 µM in the assay with CAKI-1 renal; above 250 µM in the assay with HOP-62 NSCLC. In addition, the TGI is above 1250 µM in the assay on COLO 205 colon, above 250 µM with BT-549 breast, above 250 µM with SK-OV-3 ovarian and above 1250 µM in the assay on MOLT-4 leukemia.
As to `C=CC1CC12C(=O)C1OC2(C)C2C(=O)c3ccccc3C(=O)C12` (stereo not drawn), the GI50 was 42.9 µM in the assay with MCF7 breast; above 87.3 µM in the assay on UO-31 renal; 51.4 µM with T-47D breast; above 45.3 µM in the assay with KM12 colon; 21.7 µM with CAKI-1 renal; above 68 µM in the assay with HOP-62 NSCLC. In addition, the GI50 in the assay on COLO 205 colon is above 100 µM; in the assay on BT-549 breast, above 72.9 µM; in the assay on SK-OV-3 ovarian, above 93.3 µM; with MOLT-4 leukemia, 1.54 µM. The TGI was above 76.1 µM with MCF7 breast; above 100 µM in the assay with UO-31 renal; above 100 µM with T-47D breast; above 80.8 µM in the assay on KM12 colon; 58.6 µM in the assay on CAKI-1 renal; above 100 µM in the assay on HOP-62 NSCLC. Also, the TGI was above 100 µM in the assay on COLO 205 colon, above 100 µM in the assay with BT-549 breast, above 100 µM with SK-OV-3 ovarian and 11.1 µM with MOLT-4 leukemia.
Turning to `Cn1cc(-c2cc3c(Nc4ccc(CC(=O)Nc5cc(C(C)(C)C)on5)cc4)ncnc3[nH]2)cn1`, the GI50 in the assay on MCF7 breast was 0.352 µM and 0.259 µM; in the assay with UO-31 renal it was 2.43 µM and 2.33 µM; with T-47D breast, 0.315 µM and 0.289 µM; in the assay with KM12 colon, 0.0596 µM and 0.0468 µM; in the assay with CAKI-1 renal, 1.25 µM and 1.1 µM; with HOP-62 NSCLC, 0.876 µM and 0.444 µM. For the same compound, the 50% growth inhibitory concentration (GI50) is 0.364 µM and 0.354 µM with COLO 205 colon; 0.925 µM and 0.538 µM in the assay with BT-549 breast; 1.43 µM and 2.02 µM in the assay on SK-OV-3 ovarian; 0.401 µM and 0.324 µM in the assay with MOLT-4 leukemia. The TGI in the assay with MCF7 breast was 10.3 µM and 4.01 µM; with UO-31 renal it was 7.04 µM and 6.58 µM; in the assay with T-47D breast, 6.12 µM and 2.19 µM; with KM12 colon it was 2.39 µM and 1.82 µM; in the assay on CAKI-1 renal, 7.09 µM and 6.93 µM; with HOP-62 NSCLC, 4.97 µM and 4.58 µM. The TGI was 1.21 µM and 1.65 µM in the assay on COLO 205 colon; 4.12 µM and 3.35 µM in the assay on BT-549 breast; 6.01 µM and 6.84 µM in the assay with SK-OV-3 ovarian; 11.4 µM and 2.38 µM in the assay on MOLT-4 leukemia.
As for `O=C(c1ccccc1)c1ccc(-c2ccc(O)cc2)cc1`, the GI50 in the assay with MCF7 breast is 0.34 µM; in the assay with UO-31 renal, 4.04 µM; with T-47D breast, 3.75 µM; with KM12 colon, 2.85 µM; in the assay on CAKI-1 renal it was 2.35 µM; in the assay with HOP-62 NSCLC, 7.08 µM. Moreover, the GI50 with COLO 205 colon is 19.4 µM; with BT-549 breast it was 4.04 µM; in the assay on SK-OV-3 ovarian, 14.8 µM; with MOLT-4 leukemia, 4.28 µM. Further, the TGI in the assay with MCF7 breast is 25.2 µM; in the assay on UO-31 renal it was 50.3 µM; with T-47D breast, 35.6 µM; in the assay on KM12 colon, 22.3 µM; with CAKI-1 renal, 9.84 µM; with HOP-62 NSCLC it was 25.9 µM. The TGI was 45.9 µM in the assay with COLO 205 colon, 31.3 µM with BT-549 breast, above 71.6 µM in the assay with SK-OV-3 ovarian and 33.4 µM with MOLT-4 leukemia.
As for `COC1=CC(c2ccc[nH]2)=N/C1=C\c1[nH]c(C)c(C(=O)CCC(=O)Oc2ccc3c(c2)CCC2C3CC[C@]3(C)C(=O)CC[C@@H]23)c1C` (stereo partly drawn), the GI50 with MCF7 breast was 1.91 µM; with UO-31 renal, 3.95 µM; in the assay on T-47D breast, 13.9 µM; in the assay with KM12 colon it was 5.6 µM; in the assay on CAKI-1 renal it was 8.77 µM; with HOP-62 NSCLC, 18.2 µM. Also, the GI50 with COLO 205 colon is 21.5 µM; in the assay on BT-549 breast, 15.5 µM; in the assay with SK-OV-3 ovarian, above 100 µM; with MOLT-4 leukemia, 2.71 µM. The TGI was above 49.3 µM in the assay with MCF7 breast; 30 µM in the assay on UO-31 renal; above 100 µM with T-47D breast; above 100 µM with KM12 colon; above 100 µM with CAKI-1 renal; 66 µM in the assay with HOP-62 NSCLC. In addition, the TGI in the assay on COLO 205 colon, in the assay with BT-549 breast, in the assay on SK-OV-3 ovarian and with MOLT-4 leukemia was above 100 µM throughout.
For the compound `Cc1c(Cl)ccc2c1NC(=O)C2(O)CC(=O)c1ccc(Cl)cc1Cl` (stereo not drawn), the TGI with MCF7 breast, in the assay on UO-31 renal, with T-47D breast, with KM12 colon, with CAKI-1 renal and with HOP-62 NSCLC was above 50 µM throughout. The TGI with COLO 205 colon, in the assay on BT-549 breast, in the assay on SK-OV-3 ovarian and with MOLT-4 leukemia was above 50 µM in each case.
For the compound `O=S(=O)(c1cccc(C(F)(F)F)c1)N1c2ccccc2-n2cccc2C1c1cccnc1` (stereo not drawn), the TGI in the assay on MCF7 breast was above 76 µM; with UO-31 renal it was 34.3 µM; in the assay on T-47D breast it was above 70.4 µM; in the assay on KM12 colon, above 100 µM; in the assay on CAKI-1 renal, above 100 µM; in the assay on HOP-62 NSCLC it was above 66.8 µM. The TGI in the assay with COLO 205 colon is above 54.6 µM; with BT-549 breast it was above 71.8 µM; in the assay with SK-OV-3 ovarian it was above 78.9 µM; in the assay with MOLT-4 leukemia, above 56.6 µM.
On to `O=C(CC12CC3CC(CC(C3)C1)C2)NCCOCCOCCNC(=O)c1cc2c(o1)C(=O)c1ccccc1C2=O`, for which the GI50 with MCF7 breast was 0.54 µM; in the assay with UO-31 renal, 1.5 µM; with T-47D breast it was 1.8 µM; in the assay with KM12 colon, 1.58 µM; in the assay on CAKI-1 renal, 1.46 µM; with HOP-62 NSCLC it was 1.52 µM. The GI50 with COLO 205 colon is 1.28 µM; in the assay with BT-549 breast, 1.23 µM; in the assay with SK-OV-3 ovarian it was 2.19 µM; with MOLT-4 leukemia, 1.97 µM. The TGI worked out at 2.38 µM with MCF7 breast; 3.09 µM with UO-31 renal; 5.06 µM in the assay on T-47D breast; 5.13 µM with KM12 colon; 3.86 µM with CAKI-1 renal; 2.86 µM with HOP-62 NSCLC. For the same compound, the TGI in the assay on COLO 205 colon was 2.76 µM; in the assay with BT-549 breast, 2.51 µM; with SK-OV-3 ovarian, 4.71 µM; in the assay with MOLT-4 leukemia, 4.98 µM.
